Experimental data taken from patent US11369565B2, “Amino-pyrimidine skeletal muscle modulators” (Cytokinetics, Inc., priority 2010, dated 2022).
One block for each compound: values may come before it.

Test system: rabbit skeletal myofibrils (approximately 90% fast fibers)
Assay: Activation of fast skeletal myofibrils (PUMA coupled-enzyme ATPase assay at pCa25)
Type: biochemical
Conditions: concentration at which the compound increased the enzymatic activity by 40%; calcium at pCa25; PM12 buffer pH 6.8
Protocol: Preparation of fast skeletal myofibrils. Rabbit skeletal myofibrils were prepared based upon the method of Herrmann et al. (Biochem. 32(28):7255-7263(1993). Myofibrils were prepared from rabbit psoas muscle purchased from Pel-Freez Biologicals (Arkansas) within 2 days of ordering, stored on ice. Minced muscle was homogenized in 10 volumes of ice-cold “standard” buffer (50 mM Tris, pH 7.4, 0.1 M potassium acetate, 5 mM KCl, 2 mM DTT, 0.2 mM PMSF, 10 μM leupeptin, 5 μM pepstatin, and 0.5 mM sodium azide) containing 5 mM EDTA and 0.5% Triton X-100 using an Omni-Macro homogenizer. Myofibrils were recovered by low speed centrifugation (3000 rpm for 10 minutes) and washed 2 times in the Triton X-100 containing buffer to ensure removal of cellular membrane. Following the Triton washes, myofibrils were washed 3 times in “standard” buffer containing 2 mM magnesium acetate. A final wash in assay buffer (12 mM PIPES, pH 6.8, 60 mM KCl, 1 mM DTT) was performed and brought to 10% sucrose for flash freezing in liquid nitrogen and storage at −80° C.
Activation of Fast Skeletal Myofibrils. Fast fiber activators were identified by measuring the enzymatic activity of muscle myofibril preparations using the proprietary PUMA™ (see, e.g., U.S. Pat. Nos. 6,410,254, 6,743,599, 7,202,051, and 7,378,254) assay system. Myofibril preparations consisted of rabbit skeletal muscle (approximately 90% fast fibers) that had been mechanically homogenized and washed with a detergent (triton X-100) to remove cellular membranes. This preparation retained all of the sarcomeric components in a native conformation and the enzymatic activity was still regulated by calcium. Compounds were tested using a myofibril suspension and a level of calcium sufficient to increase enzymatic activity of the myofibrils to 25% of their maximal rate (termed pCa25). Enzymatic activity was tracked via a pyruvate kinase and lactate dehydrogenase-coupled enzyme system. This assay regenerates myosin-produced ADP into ATP by oxidizing NADH, producing an absorbance change at 340 nm. The buffering system was 12 mM Pipes, 2 mM MgCl2, 1 mM DTT at pH 6.8 (PM12 buffer).

Compound: CC(C)(Nc1ncc(-c2cn3c(C(N)=O)csc3n2)cn1)c1ncccc1Cl
Mean AC1.4: B (B=1-10 uM)

Compound: CC(C)(Nc1ncc(-c2cn3c(C(=O)O)csc3n2)cn1)c1ncccc1Cl
Mean AC1.4: B (B=1-10 uM)

Compound: CC(C)(Nc1ncc(-n2cc(C#N)cn2)cn1)c1ncccc1Cl [1-(2-{[1-(3-chloro(2-pyridyl))-isopropyl]amino}pyrimidin-5-yl)pyrazole-4-carbonitrile]
Mean AC1.4: D (D=>20 uM)

Compound: CC(C)(Nc1ncc(-n2cc(C(N)=O)cn2)cn1)c1ncccc1Cl [1-(2-{[1-(3-chloro(2-pyridyl))-isopropyl]amino}pyrimidin-5-yl)pyrazole-4-carboxamide]
Mean AC1.4: B (B=1-10 uM)

Compound: CC(C)(Nc1ncc(-n2cc(C(=O)O)cn2)cn1)c1ncccc1Cl [1-(2-{[1-(3-chloro(2-pyridyl))-isopropyl]amino}pyrimidin-5-yl)pyrazole-4-carboxylic acid]
Mean AC1.4: D (D=>20 uM)

Compound: CC(C)(Nc1ncc(-n2ccc(C(N)=O)c2)cn1)c1ncccc1Cl [1-(2-{[1-(3-chloro(2-pyridyl))-isopropyl]amino}pyrimidin-5-yl)pyrrole-3-carboxamide]
Mean AC1.4: B (B=1-10 uM)

Compound: CC(C)(Nc1ncc(-n2cc(C(N)=O)cn2)cn1)c1ncccc1F [1-(2-{[1-(3-fluoro(2-pyridyl))-isopropyl]amino}pyrimidin-5-yl)pyrazole-4-carboxamide]
Mean AC1.4: D (D=>20 uM)

Compound: NC(=O)c1ccc(=O)n(-c2cnc(NC[C@]3(c4ncccc4F)C[C@H](F)C3)nc2)c1 [1-[2-({[3-fluoro-1-(3-fluoro(2-pyridyl))cyclobutyl]methyl)amino)pyrimidin-5-yl]-6-oxohydropyridine-3-carboxamide]
Mean AC1.4: D (D=>20 uM)

Compound: O=C(O)c1ccc(=O)n(-c2cnc(NC[C@]3(c4ncccc4F)C[C@H](F)C3)nc2)c1 [1-[2-({[3-fluoro-1-(3-fluoro(2-pyridyl))cyclobutyl]methyl}amino)pyrimidin-5-yl]-6-oxohydropyridine-3-carboxylic acid]
Mean AC1.4: D (D=>20 uM)

Compound: N#Cc1cnn(-c2cnc(NC[C@]3(c4ncccc4F)C[C@H](F)C3)nc2)c1 [1-[2-({[3-fluoro-1-(3-fluoro(2-pyridyl))cyclobutyl]methyl}amino)pyrimidin-5-yl]pyrazole-4-carbonitrile]
Mean AC1.4: C (C=10-20 uM)

Other lines, results leading:

Mean AC1.4: D (D=>20 uM)
Compound: 2-{[2-(4-f1uorophenyl)-2- methylpropyl]amino}-5,6,7,8- tetrahydropyridino[4,3- d]pyrimidine-6-carboxamide

Mean AC1.4: A (A=<1 uM)
Compound: NC(=O)c1ccn(-c2cnc(NC[C@]3(c4ncccc4F)C[C@H](F)C3)nc2)c1 [1-[2-({[3-fluoro-1-(3-fluoro(2-pyridyl))cyclobutyl]methyl}amino)pyrimidin-5-yl]pyrrole-3-carboxamide]

Mean AC1.4: D (D=>20 uM)
Compound: O=C(O)c1ccn(-c2cnc(NC[C@]3(c4ncccc4F)C[C@H](F)C3)nc2)c1 [1-[2-({[3-fluoro-1-(3-fluoro(2-pyridyl))cyclobutyl]methyl}amino)pyrimidin-5-yl]pyrrole-3-carboxylic acid]

Mean AC1.4: D (D=>20 uM)
Compound: O=c1cc(O)ccn1-c1cnc(NC[C@]2(c3ncccc3F)C[C@H](F)C2)nc1 [1-[2-({[3-fluoro--1-(3-fluoro(2-pyridyl))cyclobutyl]methyl)amino)pyrimidin-5-yl]-4-hydroxyhydropyridin-2-one]

Mean AC1.4: B (B=1-10 uM)
Compound: NC(=O)c1cnn(-c2cnc(NCC3(c4ncccc4F)CCC3)nc2)c1 [1-[2-({[(3-fluoro-2-pyridyl)cyclobutyl]methyl}amino)pyrimidin-5-yl] pyrazole-4-carboxamide]

Mean AC1.4: D (D=>20 uM)
Compound: O=C(O)c1cnn(-c2cnc(NCC3(c4ncccc4F)CCC3)nc2)c1 [1-[2-({[(3-fluoro-2-pyridyl)cyclobutyl]methyl}amino)pyrimidin-5-yl]pyrazole-4-carboxylic acid]

Mean AC1.4: D (D=>20 uM)
Compound: CC(C)(CNc1ncc(C(=O)NC2(C(N)=O)CC2)cn1)c1ccc(F)cc1 [1-[(2-{[2-(4-fluorophenyl)-2-methylpropyl]amino}pyrimidin-5-yl)carbonylamino] cyclopropanecarboxamide]
